# From US9931332B2, “Compositions and methods for treating primary effusion lymphoma” (University of Southern California, priority 2014, dated 2018)
# Experiments:
# [1] = system: PEL cell lines; test: Cell viability, MTS assay; format: cell-based; conditions: for PEL cell lines sensitive within physiologically achievable doses: 7 PEL cell lines, increasing concentrations; for sensitivity of the 5 PEL cell lines to recombinant IFN: BC-3, BCBL-1, JSC-1, BC-1 and VG-1, 5 days
# Protocol: (§1) Cells from exponentially growing cultures were plated in untreated flat-bottom 96 well plates at a density of 5×10^3 cells/well, treated with an increasing concentration of the drugs and subsequently assessed for cell viability using the MTS reagent (3-4,5-dimethylthiazol-2yl)-5-(3-carboxy-methoxyphenyl)-2-(4-sulfophenyl)-2H-tetrazolium, inner salt) following the manufacturer's instructions (Promega). Percent cell survival was calculated based on the reading of cells grown in the presence of DMSO control. Experiments were performed in triplicate and have been repeated 2-3 times.
# [2] = system: IL-6; test: IL-6 ELISA in supernatants of BC-3 cells; format: cell-based, Human; conditions: 12, 24 and 48 h
# Protocol: IL-6 was measured in supernatants using BD OptEIA™ Human IL-6 ELISA set as per manufacturer's instructions.
# [3] = system: IKKα/β, p100/p52 and RELB; test: Immunoblot of NF-κB proteins; format: cell-based; conditions: BC-3, BCBL-1, JSC-1 and DG-75 cells, increasing doses
# Protocol: (§2) Cells were lysed in lysis buffer containing 20 mM sodium phosphate (pH 7.4), 150 mM NaCl, 0.1% Triton X-100, 0.2 M PMSF, and 10% glycerol supplement with a protease inhibitor mixture tablet (Roche). Whole cell extracts were resolved by SD-polyacrylamide gel electrophoresis, transferred to nitrocellulose membrane, and probed with the indicated primary antibodies. Bound antibodies were detected with IRdye 680 or 800 (Licor biosciences) and blots were scanned with licor odyssey CLx imaging system (Licor biosciences). Primary antibodies used in these experiments were from the following sources: PARP (9542), NF-κB2 (p100/p52; 4882) from Cell Signaling; IRF4 (6059), IKZF1 (13039), HSP90 (69703), IKKα/β (7607), RELB (226) from Santa Cruz Biotechnology; MYC (1472-1, Epitomics); tubulin (T9026), cereblon (HPA045910) from Sigma; GAPDH (1107018, Ambion), IKZF3 (6255, Imgenex) and BRD4 (a gift from Dr. Peter Howley, Harvard Medical School).
# [4] = system: PEL cells; test: Real-time qRT-PCR of mRNA expression; format: cell-based
# Protocol: Real-time quantitative reverse transcript-polymerase chain reaction (qRT-PCR) was performed with SYBR Green using gene-specific PCR primers. Samples were run in triplicate, and PCR was performed by an ABI Step One Plus thermocycler (Applied Biosystems). GAPDH was used as housekeeping gene and qRT-PCR data (Ct values) was analyzed using the 2^−ΔΔCT method as described earlier (Zhao et al., 2007). The qRT-PCR data was presented as fold change in target gene expression±standard error.
# [5] = system: BC-3 cells; test: PEL orthotopic tumor model; format: in vivo, NOD.SCID mice; set-up: dose or concentration left out as unconfirmed; conditions: once daily for 28 days, intraperitoneally
# Protocol: A total of 2×10^7 BC-3 cells were injected intraperitoneally into female NOD.SCID mice (NCI Frederick, 6 weeks old). 5 days after tumor cells inoculation the mice were randomly divided in to 4 groups (n=7 each). […] (once daily), JQ-1 50 mg/kg b.w. (once daily) and the combination were administered intraperitoneally daily for 28 days. Then the animals were monitored for survival. Body weight gain was measured once in 3 days as a surrogate measure of tumor progression (Qin et al., 2014). The experiments were performed following the guidelines of institutional animal ethics committee.
# [6] = system: PEL; conditions: treated for 18 months so far (Antar et al., 2014); cited from earlier work
# [7] = system: BC-3 and BCBL-1 cells; test: Genome-wide microarray analysis; conditions: 5 μM, 24 h
# Protocol: Two technical replicates per cell line per condition (8 samples total) were assayed on the Illumina Human HT12 BeadChip whole genome expression microarray, with coverage of 39809 coding transcripts and 3961 non-coding transcripts. Probe intensities were extracted directly from binary IDAT files using the ‘illuminaio’ package (Smith et al., 2013). Background correction and normalization was then performed using ‘limma’ package (Smyth, 2005). An estimate of the fraction of probes with detectable expression (approximately 47% of the probes present on the array) was extracted by comparing the negative control probe intensities with hybridization probe intensities; probes failing this cutoff were filtered from further analysis. An empirical Bayes linear model including treatment and cell-line specific effects was fitted to the filtered data, again using ‘limma’. […] Hierarchial clustering with Euclidean distance and centroid linkage was performed in R (http://www.R-project.org). A heat map of differences (corrected for cell-line-specific effects) was plotted.
# [8] = system: BJAB cells; test: Cell viability, MTS assay; format: cell-based; conditions: 5 days
# Protocol: as §1
# [9] = system: panel of hematological cancer cell lines; test: Cell viability, MTS assay, panel of hematological cancer cell lines; format: cell-based; conditions: 5 days, increasing concentrations
# Protocol: as §1
# [10] = target: cereblon (CRBN) (Homo sapiens, UniProt Q96SW2); conditions: 48 h
# cereblon (CRBN), sequence (Q96SW2 whole entry): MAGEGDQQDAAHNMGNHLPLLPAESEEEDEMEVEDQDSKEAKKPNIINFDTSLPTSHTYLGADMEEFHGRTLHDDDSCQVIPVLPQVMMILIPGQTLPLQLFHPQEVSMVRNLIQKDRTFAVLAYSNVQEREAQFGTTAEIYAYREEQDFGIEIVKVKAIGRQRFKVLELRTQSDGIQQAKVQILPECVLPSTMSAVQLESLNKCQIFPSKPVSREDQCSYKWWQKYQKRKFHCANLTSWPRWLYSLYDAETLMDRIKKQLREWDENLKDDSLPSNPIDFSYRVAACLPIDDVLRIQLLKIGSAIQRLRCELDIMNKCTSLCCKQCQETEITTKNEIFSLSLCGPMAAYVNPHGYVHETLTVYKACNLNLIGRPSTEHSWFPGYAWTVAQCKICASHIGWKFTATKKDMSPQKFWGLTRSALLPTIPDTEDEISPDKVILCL
# Protocol: Cells were lysed in lysis buffer containing 20 mM sodium phosphate (pH 7.4), 150 mM NaCl, 0.1% Triton X-100, […], and 10% glycerol supplement with a protease inhibitor mixture tablet (Roche). Whole cell extracts were resolved by SD-polyacrylamide gel electrophoresis, transferred to nitrocellulose membrane, and probed with the indicated primary antibodies. Bound antibodies were detected with IRdye 680 or 800 (Licor biosciences) and blots were scanned with licor odyssey CLx imaging system (Licor biosciences).
# [11] = system: BC-3 and BCBL-1 cells; test: Combination index (Chou and Talalay, calcusyn), MTS viability; format: cell-based; conditions: low doses, 12 combinations each, all combination doses tested
# Protocol: as §1
# [12] = system: IKZF1 (Ikaros), IKZF3 (Aiolos); test: Immunoblot of IKZF1 and IKZF3 expression; format: cell-based; conditions: BC-3 and BCBL-1, MLN4924 pretreatment 1 h then IMiDs 15 h
# Protocol: as §2
# [13] = BC-3, BCBL-1 and JSC-1, 5 μM, 24 h
compound,measurement,setting,value
Nc1cccc2c1CN(C1CCC(=O)NC1=O)C2=O (stereo not shown) [lenalidomide],PEL cell lines sensitive within physiologically achievable doses,[1]; 5 days,5/7
same,IL-6 secretion by BC-3 cells,[2],did not have any significant effect
same,"expression of IKKα/β, p100/p52 and RELB proteins",[3],did not have any significant effect
same,mRNA levels of IKZF1,[4]; [13],moderately up-regulated
same,"mRNA levels of IRF4, MYC and its target TERT",[4]; [13],"down-regulated mildly, and moderately"
same,transcript levels of IFNs and interferon specific genes (ISGs),"[4]; BCBL-1 cells, 5 μM, 24 hours",upregulated
same,median survival,[5],35 days
same,"outcome of elderly HIV-negative, KSHV-positive PEL patient",[6],without any symptoms or evidence of disease progression
same,downregulated genes,[7],390 genes
same,upregulated genes,[7],602 genes
same,genes whose expression changed significantly (pFDR<0.05),[7]; both cell lines,992 genes
IFN-α,effect of recombinant IFN on BJAB,[8],very little effect
same,"sensitivity of BC-3, BCBL-1 and JSC-1 to recombinant IFN",[1]; 5 days,highly sensitive
same,sensitivity of the 5 PEL cell lines to recombinant IFN,[1],sensitive
O=C1CCC(N2C(=O)c3ccccc3C2=O)C(=O)N1 (stereo not shown) [thalidomide],effect on the growth of the cell lines,[9],did not have any major effect
Nc1cccc2c1C(=O)N(C1CCC(=O)NC1=O)C2=O (stereo not shown) [pomalidomide],PEL cell lines sensitive within physiologically achievable doses,[1]; 5 days,6/7
same,CRBN level in BCBL-1 cells,[10],no change
same,level of cereblon in BC-3 cells,[10],slight decrease
Cc1sc2c(c1C)C(c1ccc(Cl)cc1)=N[C@@H](CC(=O)OC(C)(C)C)c1nnc(C)n1-2 [JQ-1],synergy of lenalidomide with BRD4 inhibitor (combination index),[11],highly synergistic
same,median survival,[5],42 days
COc1ccccc1S(=O)(=O)Nc1ccc2c(c1)CN(C)C(=O)N2 [PFI-1],synergy of lenalidomide with BRD4 inhibitor (combination index),[11],highly synergistic
NS(=O)(=O)OC[C@@H]1C[C@@H](n2ccc3c(N[C@H]4CCc5ccccc54)ncnc32)C[C@@H]1O [MLN4924],effect on downregulation of IKZF1 by IMiDs,[12],completely blocked
COc1cc2c(cc1-c1c(C)noc1C)ncc1[nH]c(=O)n([C@H](C)c3ccccn3)c12 [IBET151],synergy of lenalidomide with BRD4 inhibitor (combination index),[11],highly synergistic
IFN-γ: recombinant interferon γ,effect of recombinant IFN on BJAB,[8],without any significant effect
same,sensitivity of the 5 PEL cell lines to recombinant IFN,[1],sensitive
